# Reference: PMC10221074, “Functional Profiling of the A-Family of Venom Peptides from the Wolf Spider Lycosa shansia” (Toxins, 2023)
# Experiments:
# [1] = test system: Staphylococcus aureus DSM 2569; test: Antibacterial growth assay (OD600); details: OD600, medium = 100, MH II broth; for Bacterial growth relative to medium, S. aureus, replicate 1: replicate column 1; for Bacterial growth relative to medium, S. aureus, replicate 2: replicate column 2; for Bacterial growth relative to medium, S. aureus, replicate 3: replicate column 3
# [2] = test system: Pseudomonas aeruginosa DSM 50071; test: Antibacterial growth assay (OD600); details: for Bacterial growth relative to medium, P. aeruginosa (50071), replicate 1 / Bacterial growth relative to medium, P. aeruginosa (50071), replicate 2 / Bacterial growth relative to medium, P. aeruginosa (50071), replicate 3: OD600, medium = 100, MH II broth; for Bacterial growth relative to medium, P. aeruginosa (50071), replicate 1: replicate column 1; for Bacterial growth relative to medium, P. aeruginosa (50071), replicate 2: replicate column 2; for Bacterial growth relative to medium, P. aeruginosa (50071), replicate 3: replicate column 3
# Procedure: (§1) Cryo-conserved cultures of selected bacterial strains (Table 4) were transferred to Tryptic Soy Agar (TSA) plates (Carl Roth) with a sterile inoculation loop, sealed with Parafilm (BEMIS, Neenah, WI, USA), and incubated for 1–2 days at 37 °C depending on growth. Single colonies were picked and transferred into 2–3 mL of the Mueller–Hinton II (MH II) broth (BD, Heidelberg, Germany). The bacteria were cultivated overnight, subcultured on fresh medium and grown for 3–4 h before testing at 37 °C, with shaking at 180 rpm. We measured the optical density at 600 nm (OD600) of 1 mL of the bacterial suspensions in polystyrene cuvettes (SARSTED, Nümbrecht, Germany) using an Ultrospec 10 spectrophotometer (Biochrome, Cambridge, UK). We then diluted them with the MH II medium to the preferred OD600 (Table 2). The peptides were dissolved in DMSO to generate 10 mmol/L stocks and diluted with the MH II medium to 200 µM before the assay. We used 10 µg/mL (~40 µg/mL for S. epidermidis) gentamicin and colistin (Sigma-Aldrich, Taufkirchen, Germany), DMSO and the medium only as controls. The bacteria were transferred to 96-multiwell plates with a final volume of 100 µL per well (50 µL bacterial suspension, and 50 µL test peptide). The OD600 was measured at 0, 24 and 48 h using a BioTek Eon microplate reader followed by analysis with Gen5 v2.09.
# [3] = test system: Listeria monocytogenes DSM 20600; test: Antibacterial growth assay (OD600); details: for Bacterial growth relative to medium, L. monocytogenes, replicate 1 / Bacterial growth relative to medium, L. monocytogenes, replicate 2 / Bacterial growth relative to medium, L. monocytogenes, replicate 3: OD600, medium = 100, MH II broth; for Bacterial growth relative to medium, L. monocytogenes, replicate 1: replicate column 1; for Bacterial growth relative to medium, L. monocytogenes, replicate 2: replicate column 2; for Bacterial growth relative to medium, L. monocytogenes, replicate 3: replicate column 3
# [4] = test system: Staphylococcus epidermidis DSM 28319; test: Antibacterial growth assay (OD600); details: for Bacterial growth relative to medium, S. epidermidis, replicate 1: replicate column 1; for Bacterial growth relative to medium, S. epidermidis, replicate 2: replicate column 2; for Bacterial growth relative to medium, S. epidermidis, replicate 3: replicate column 3
# [5] = test system: Escherichia coli BL21(DE3); test: Antibacterial growth assay (OD600); details: OD600, medium = 100, MH II broth; for Bacterial growth relative to medium, E. coli, replicate 1: replicate column 1; for Bacterial growth relative to medium, E. coli, replicate 2: replicate column 2; for Bacterial growth relative to medium, E. coli, replicate 3: replicate column 3
# Procedure: as §1
# [6] = test system: Pseudomonas aeruginosa DSM 1117; test: Antibacterial growth assay (OD600); details: for Bacterial growth relative to medium, P. aeruginosa (1117), replicate 1 / Bacterial growth relative to medium, P. aeruginosa (1117), replicate 2 / Bacterial growth relative to medium, P. aeruginosa (1117), replicate 3: OD600, medium = 100, MH II broth; for Bacterial growth relative to medium, P. aeruginosa (1117), replicate 1: replicate column 1; for Bacterial growth relative to medium, P. aeruginosa (1117), replicate 2: replicate column 2; for Bacterial growth relative to medium, P. aeruginosa (1117), replicate 3: replicate column 3
# Procedure: as §1
# [7] = test system: Micrococcus luteus DSM 20030; test: Antibacterial growth assay (OD600); details: OD600, medium = 100, MH II broth; for Bacterial growth relative to medium, M. luteus, replicate 1: replicate column 1; for Bacterial growth relative to medium, M. luteus, replicate 2: replicate column 2; for Bacterial growth relative to medium, M. luteus, replicate 3: replicate column 3
# Procedure: as §1
# A/Hessen/1/2003 (H3N2) = format: cell-based, influenza virus
# [8] = test system: B/Malaysia/2506/2004 (B-Mal); format: cell-based, influenza virus
# A/Hamburg/05/2009 (H1N1) = format: cell-based, influenza virus
# [9] = antibiotic control, table line says 10µg/mL (methods: ~40 µg/mL for S. epidermidis), OD600, medium = 100
# [10] = 37 °C, peptide 200 µM mixed 50 µL + 50 µL with bacteria, Figure 7: 48 h
# [11] = OD600, medium = 100, MH II broth, 37 °C, peptide 200 µM mixed 50 µL + 50 µL with bacteria, Figure 7: 48 h
compound,measurement,setting,value
"CNC(C)C1CCC(N)C(OC2C(N)CC(N)C(OC3OCC(C)(O)C(NC)C3O)C2O)O1 (stereo not shown) [Genta, gentamicin, reference compound]","Bacterial growth relative to medium, S. aureus, replicate 1",[1]; antibiotic control 10µg/mL,10.1302
same,"Bacterial growth relative to medium, S. aureus, replicate 2",[1]; antibiotic control 10µg/mL,22.1938
same,"Bacterial growth relative to medium, S. aureus, replicate 3",[1]; antibiotic control 10µg/mL,8.389
same,"Bacterial growth relative to medium, P. aeruginosa (50071), replicate 1",[2]; antibiotic control 10µg/mL,10.9397
same,"Bacterial growth relative to medium, P. aeruginosa (50071), replicate 2",[2]; antibiotic control 10µg/mL,9.403
same,"Bacterial growth relative to medium, P. aeruginosa (50071), replicate 3",[2]; antibiotic control 10µg/mL,6.959
same,"Bacterial growth relative to medium, L. monocytogenes, replicate 1",[3]; antibiotic control 10µg/mL,41.2443
same,"Bacterial growth relative to medium, L. monocytogenes, replicate 2",[3]; antibiotic control 10µg/mL,32.6505
same,"Bacterial growth relative to medium, L. monocytogenes, replicate 3",[3]; antibiotic control 10µg/mL,13.0219
same,"Bacterial growth relative to medium, S. epidermidis, replicate 1",[4]; [9],41.1615
same,"Bacterial growth relative to medium, S. epidermidis, replicate 2",[4]; [9],36.2191
same,"Bacterial growth relative to medium, S. epidermidis, replicate 3",[4]; [9],58.2561
same,"Bacterial growth relative to medium, E. coli, replicate 1",[5]; antibiotic control 10µg/mL,15.2669
same,"Bacterial growth relative to medium, E. coli, replicate 2",[5]; antibiotic control 10µg/mL,26.3127
same,"Bacterial growth relative to medium, E. coli, replicate 3",[5]; antibiotic control 10µg/mL,7.573
same,"Bacterial growth relative to medium, P. aeruginosa (1117), replicate 1",[6]; antibiotic control 10µg/mL,7.251
same,"Bacterial growth relative to medium, P. aeruginosa (1117), replicate 2",[6]; antibiotic control 10µg/mL,12.1419
same,"Bacterial growth relative to medium, P. aeruginosa (1117), replicate 3",[6]; antibiotic control 10µg/mL,0.7836
same,"Bacterial growth relative to medium, M. luteus, replicate 1",[7]; antibiotic control 10µg/mL,34.7531
same,"Bacterial growth relative to medium, M. luteus, replicate 2",[7]; antibiotic control 10µg/mL,33.0988
same,"Bacterial growth relative to medium, M. luteus, replicate 3",[7]; antibiotic control 10µg/mL,25.6914
SLLGLLDVVKSKIGQTG [LS-AMP-A14],"Viability of infected cells relative to aprotinin, Replicate 1",A/Hessen/1/2003 (H3N2),0.07143
same,"Viability of infected cells relative to aprotinin, Replicate 2",A/Hessen/1/2003 (H3N2),0.146
same,"Viability of infected cells relative to aprotinin, Replicate 3",A/Hessen/1/2003 (H3N2),0.0602
same,"Viability of infected cells relative to aprotinin, Replicate 4","A/Hessen/1/2003 (H3N2); […], replicate 4 (additional internal control)",0.04395
same,"Bacterial growth relative to medium, S. aureus, replicate 1",[1]; [10],81.4506
same,"Bacterial growth relative to medium, S. aureus, replicate 2",[1]; [10],83.1916
same,"Bacterial growth relative to medium, S. aureus, replicate 3",[1]; [10],66.5171
same,"Bacterial growth relative to medium, P. aeruginosa (50071), replicate 1",[2]; [10],100.972
same,"Bacterial growth relative to medium, P. aeruginosa (50071), replicate 2",[2]; [10],116.001
same,"Bacterial growth relative to medium, P. aeruginosa (50071), replicate 3",[2]; [10],81.6852
same,Antibacterial activity (in words),"[2]; P. aeruginosa DSM 50071, growth after 48 h",weak activity
same,"Viability of infected cells relative to aprotinin, Replicate 1",[8],0.05534
same,"Viability of infected cells relative to aprotinin, Replicate 2",[8],0.06456
same,"Viability of infected cells relative to aprotinin, Replicate 3",[8],0.1102
same,Antibacterial activity (in words),"[3]; L. monocytogenes DSM 20600, growth after 48 h",more active
same,"Bacterial growth relative to medium, L. monocytogenes, replicate 1",[3]; [10],102.734
same,"Bacterial growth relative to medium, L. monocytogenes, replicate 2",[3]; [10],82.6703
same,"Bacterial growth relative to medium, L. monocytogenes, replicate 3",[3]; [10],49.785
same,"Bacterial growth relative to medium, S. epidermidis, replicate 1",[4]; [11],97.145
same,"Bacterial growth relative to medium, S. epidermidis, replicate 2",[4]; [11],104.641
same,"Bacterial growth relative to medium, S. epidermidis, replicate 3",[4]; [11],74.4979
same,"Bacterial growth relative to medium, E. coli, replicate 1",[5]; [10],109.705
same,"Bacterial growth relative to medium, E. coli, replicate 2",[5]; [10],98.8412
same,"Bacterial growth relative to medium, E. coli, replicate 3",[5]; [10],96.3776
same,"Bacterial growth relative to medium, P. aeruginosa (1117), replicate 1",[6]; [10],84.8429
same,"Bacterial growth relative to medium, P. aeruginosa (1117), replicate 2",[6]; [10],62.4783
same,"Bacterial growth relative to medium, P. aeruginosa (1117), replicate 3",[6]; [10],58.9547
same,Antibacterial activity (in words),"[6]; P. aeruginosa DSM 1117, growth after 48 h",weak activity
same,"Viability of infected cells relative to aprotinin, Replicate 1",A/Hamburg/05/2009 (H1N1),0.03385
same,"Viability of infected cells relative to aprotinin, Replicate 2",A/Hamburg/05/2009 (H1N1),0.02545
same,"Viability of infected cells relative to aprotinin, Replicate 3",A/Hamburg/05/2009 (H1N1),0.02099
same,"Bacterial growth relative to medium, M. luteus, replicate 1",[7]; [10],101.208
same,"Bacterial growth relative to medium, M. luteus, replicate 2",[7]; [10],114.302
same,"Bacterial growth relative to medium, M. luteus, replicate 3",[7]; [10],44.4763
"colistin [Polymyx, reference compound]","Bacterial growth relative to medium, S. aureus, replicate 1",[1]; antibiotic control 10µg/mL,85.0041
same,"Bacterial growth relative to medium, S. aureus, replicate 2",[1]; antibiotic control 10µg/mL,99.7935
same,"Bacterial growth relative to medium, S. aureus, replicate 3",[1]; antibiotic control 10µg/mL,95.4465
same,"Bacterial growth relative to medium, P. aeruginosa (50071), replicate 1",[2]; antibiotic control 10µg/mL,5.416
same,"Bacterial growth relative to medium, P. aeruginosa (50071), replicate 2",[2]; antibiotic control 10µg/mL,11.2545
same,"Bacterial growth relative to medium, P. aeruginosa (50071), replicate 3",[2]; antibiotic control 10µg/mL,11.5437
same,"Bacterial growth relative to medium, L. monocytogenes, replicate 1",[3]; antibiotic control 10µg/mL,82.3087
same,"Bacterial growth relative to medium, L. monocytogenes, replicate 2",[3]; antibiotic control 10µg/mL,64.4034
same,"Bacterial growth relative to medium, L. monocytogenes, replicate 3",[3]; antibiotic control 10µg/mL,78.447
same,"Bacterial growth relative to medium, S. epidermidis, replicate 1",[4]; [9],77.611
same,"Bacterial growth relative to medium, S. epidermidis, replicate 2",[4]; [9],72.7124
same,"Bacterial growth relative to medium, S. epidermidis, replicate 3",[4]; [9],81.8478
same,"Bacterial growth relative to medium, E. coli, replicate 1",[5]; antibiotic control 10µg/mL,15.553
same,"Bacterial growth relative to medium, E. coli, replicate 2",[5]; antibiotic control 10µg/mL,16.1645
same,"Bacterial growth relative to medium, E. coli, replicate 3",[5]; antibiotic control 10µg/mL,11.9401
same,"Bacterial growth relative to medium, P. aeruginosa (1117), replicate 1",[6]; antibiotic control 10µg/mL,8.3082
same,"Bacterial growth relative to medium, P. aeruginosa (1117), replicate 2",[6]; antibiotic control 10µg/mL,7.355
same,"Bacterial growth relative to medium, P. aeruginosa (1117), replicate 3",[6]; antibiotic control 10µg/mL,3.543
same,"Bacterial growth relative to medium, M. luteus, replicate 1",[7]; antibiotic control 10µg/mL,34.787
same,"Bacterial growth relative to medium, M. luteus, replicate 2",[7]; antibiotic control 10µg/mL,53.8113
same,"Bacterial growth relative to medium, M. luteus, replicate 3",[7]; antibiotic control 10µg/mL,47.1539
